| melting point [°C] | SMILES |
| --- | --- |
| 264 to 266 | Cc1oc(-c2ccc(Cl)c(Cl)c2)nc1C(=O)O |
| 164 to 166 | Cc1nnc(S)n1Cc1ccccc1 |
| 250 to 252 | O=C(O)c1cccc(S(=O)(=O)Nc2ccc(Cl)cc2)c1 |
| 149 to 151 | Cc1ccc2sc(-c3ccc(CCl)cc3)nc2c1 |
| 142 to 144 | O=C(O)CCNC(=O)c1ccc(Br)cc1 |
| 166 to 168 | O=C(O)Cc1coc2ccc3ccccc3c12 |
| 102 to 104 | COC(=O)c1cccc(OCc2ncon2)c1 |
| 77 to 79 | CC(=O)c1nnn(-c2ccc(F)cc2)c1C |
| 232 to 234 | Cc1ccccc1Nc1nc2sc(C(=O)O)cc2s1 |
| 59 to 61 | Cc1cc(-n2nccc2N)ncn1 |
| 182 to 184 | CC(SC1=NS(=O)(=O)c2ccccc21)C(=O)O (centres undefined) |
| 129 to 131 | Cc1ncc(C(=O)O)c(Br)c1Cl |
| 223 to 225 | CSc1nc(C)nc(C)c1C(=O)O |
| 155 to 157 | NC(=O)Nc1ccc(N)cc1 |
| 108 to 110 | Cc1nn(-c2ccccc2)c(N)c1SC#N |
| 164 to 166 | Fc1ccccc1-c1nnc2ccc(Cl)nn12 |
| 190 to 192 | CCOC(=O)c1cc(N)cc(S(C)(=O)=O)c1 |
| 177 to 179 | O=c1[nH]ccc2ccn(Cc3ccccc3)c12 |
| 92 to 94 | O=Cc1c(Cl)cccc1OCc1ccccc1Cl |
| 194 to 196 | Cc1nc2ccnn2c(C)c1C(=O)O |
| 239 to 241 | CN(C)S(=O)(=O)c1cc(C(=O)O)ccc1Cl |

| melting point [°C] | SMILES |
| --- | --- |
| 129 to 131 | Cc1cc2c(N3CCCC3C(=O)O)ncnc2s1 (centres undefined) |
| 192 to 194 | O=C(O)c1ccc(S(=O)(=O)c2ccccc2)s1 |
| 160 to 162 | O=C(O)c1cc2ccc(OC(F)(F)F)cc2[nH]1 |
| 133 to 135 | CC(C)NC(=O)Nc1ccc(CN)cc1 |
| 98 to 100 | O=Cc1ccc(OCc2ncon2)cc1 |
| 169 to 171 | CC1(c2ccccc2)NC(=O)N(N)C1=O (centres undefined) |
| 268 to 270 | O=C(O)c1cc2[nH]nnc2cc1F |
| 107 to 109 | Cc1cnc(-c2cccc(N)c2)o1 |
| 179 to 181 | COC(=O)c1c(S)nc2ccccc2c1O |
| 29 to 31 | COC(=O)CCCOc1ccccc1F |
| 165 to 167 | NC(=O)CC(NS(=O)(=O)c1ccccc1F)C(=O)O (centres undefined) |
| 224 to 226 | Nc1nncc(-c2cccc(F)c2)n1 |
| 245 to 247 | Cc1nc(-c2ccc(S(N)(=O)=O)cc2)co1 |
| 111 to 113 | COC(=O)c1c(F)cc(C#N)cc1F |
| 55 to 57 | Cc1cccc(OCCCC(=O)O)c1 |
| 56 to 58 | COC(=O)C(N)c1ccc2ccccc2c1 (centres undefined) |
| 66 to 68 | CCOc1ccc(OC(C)(C)C(=O)O)cc1 |
| 164 to 166 | Oc1cccc2[nH]ncc12 |
| 273 to 275 | Cc1ccc2[nH]nc(C(=O)O)c2c1 |
| 142 to 144 | COc1ccc(OCC(=O)NN)cc1 |
| 200 to 202 | Cc1cc(COc2ccc(C(=O)O)cc2Br)no1 |

| melting point [°C] | SMILES |
| --- | --- |
| 212 to 214 | CC1(C)C(=O)NCCN1Cc1ccccc1 |
| 230 to 232 | Nc1ccc2[nH]c(-c3ccco3)nc2c1 |
| 47 to 49 | CC(C)(C)OC(=O)Cc1cccc(N)c1 |
| 199 to 201 | Cc1nnc(-c2cccc(CN)c2)[nH]1 |
| 161 to 163 | O=C(O)C1CCCCN1S(=O)(=O)c1ccc([N+](=O)[O-])cc1 (centres undefined) |
| 220 to 222 | COc1ccc(C2C(C(N)=O)CCC(=O)N2C)cc1 (centres undefined) |
| 198 to 200 | O=c1[nH]c(-c2ccccn2)no1 |
| 51 to 53 | COc1ccc(S(=O)(=O)Cl)cc1C |
| 104 to 106 | Cc1cccc([N+](=O)[O-])c1C(=O)n1ccnc1 |
| 130 to 132 | O=C(NC1CCCNC1)c1ccccc1 (centres undefined) |
| 103 to 105 | CN(Cc1cc(C#N)ccc1F)C(=O)CCl |
| 147 to 149 | CC(=O)c1ccc(NC(=O)NC(C)C)cc1 |
| 30 to 32 | COc1cccc(C=O)c1OC(F)F |
| 110 to 112 | CC(N)c1ccc(NC(=O)c2ccc(F)cc2)cc1 (centres undefined) |
| 200 to 202 | Cc1cc2ncc3c(n2n1)C(=O)OCC3 |
| 119 to 121 | CC(C)(C)OC(=O)Nc1ccc(CC#N)cc1 |
| 195 to 197 | COc1cc(OCC(=O)O)ccc1[N+](=O)[O-] |
| 172 to 174 | O=C(O)c1cc(S(=O)(=O)N2CCC2)ccc1Cl |
| 221 to 223 | CC(C)Cn1c(S)nc2cc(Cl)ccc2c1=O |
| 194 to 196 | O=C(Nc1ccn[nH]1)OCc1ccccc1 |
| 124 to 126 | Cc1cccn2c(=O)cc(Cl)nc12 |

| melting point [°C] | SMILES |
| --- | --- |
| 200 to 206 | Cc1cccc(NC(=O)CSCC(=O)O)c1 |
| 211 to 213 | O=C(NCc1ccccc1F)c1ccc(-n2ccnc2S)cc1 |
| 229 to 231 | Nc1cccc(N2CCCNC2=O)c1 |
| 83 to 85 | COC(=O)C1CCN(c2nccc3sccc23)CC1 |
| 71 to 73 | CC(C)(C)c1ccc(CCCCC(=O)O)cc1 |
| 102 to 104 | O=C(O)c1cc(Cl)ccc1Oc1ccc(F)cc1 |
| 192 to 194 | Oc1cccc(-c2nnc[nH]2)c1 |
| 98 to 100 | CC(C)C(Br)C(=O)Nc1ccccc1F (centres undefined) |
| 172 to 176 | O=C(O)c1ccc2c(c1)C(=O)N(Cc1ccco1)C2=O |
| 160 to 162 | NC(=S)CN1C(=O)c2ccccc2S1(=O)=O |
| 181 to 183 | O=C1CCS(=O)(=O)c2c(F)cccc21 |
| 128 to 130 | O=C(O)c1ccc(Cn2cc(Br)cn2)o1 |
| 135 to 139 | CC(=O)c1ccc(OCCCC(=O)O)cc1 |
| 68 to 70 | Cc1c(Cl)cccc1N1C(=O)C=CC1=O |
| 281 to 283 | O=C(O)c1cc2c(Cl)c(Cl)ccc2[nH]1 |
| 99 to 101 | Nc1ccc(-c2cc[nH]c2)cc1 |
| 205 to 209 | CN(C)S(=O)(=O)c1ccc2c(c1)nc(CCC(=O)O)n2C |
| 193 to 195 | Cc1c(N)cccc1NC(=O)c1ccccc1 |
| 58 to 60 | CC(=O)c1ccc2c3c(cccc13)CC2 |
| 102 to 104 | Oc1cccc(Oc2ccncn2)c1 |
| 152 to 154 | CN(C(=O)c1ccc(Cl)cc1)c1ccc(N)cc1 |

Continued, compound first:

| SMILES | melting point [°C] |
| --- | --- |
| c1cnc(N2CCN(c3ncccn3)CC2)nc1 | 144 to 146 |
| Nc1sc2c(c1-c1nc3ccccc3s1)CCCC2 | 100 to 104 |
| CC(C)S(=O)(=O)C(C)C(=O)O (centres undefined) | 96 to 98 |
| NC(=O)c1cnc(N)c(Cl)c1 | 217 to 219 |
| Cc1[nH]c(N)c(C#N)c1C | 149 to 151 |
| NC(=S)CC(N)=S | 202 to 204 |
| Cc1nc(CO)oc1C | 59 to 61 |
| Cc1cc(C=O)nc(N2CCCCC2)n1 | 49 to 51 |
| Cc1nc([N+](=O)[O-])cn1CCC(=O)O | 217 to 219 |
| O=C(O)c1cc(Cl)ccn1 | 170 to 174 |
| CCS(=O)(=O)Nc1ccccc1C(=O)O | 145 to 147 |
| Cc1ccnc(NC2CCCCC2)c1 | 75 to 77 |
| Cn1c(C=O)nc2c1c(=O)[nH]c(=O)n2C | 284 to 286 |
| CC1=NC2(CCCC2)C(=O)N1 | 66 to 68 |
| C=CS(=O)(=O)c1ccc([N+](=O)[O-])cc1 | 112 to 114 |
| ClCc1cc(Cl)cc2c1OC(c1ccccc1)OC2 (centres undefined) | 111 to 113 |
| CC(C)Oc1ccc(C(O)CN2CCN(C)CC2)cc1 (centres undefined) | 103 to 105 |
| COc1cncc(C=CC(=O)O)c1 | 172 to 174 |
| NC(=O)NC(CC(=O)O)c1ccccc1Cl (centres undefined) | 163 to 165 |
| CCOC(=O)c1cc(CC)sc1N | 69 to 71 |

| SMILES | melting point [°C] |
| --- | --- |
| CNS(=O)(=O)c1cccc(S(=O)(=O)Cl)c1 | 98 to 100 |
| O=C(O)C1Cc2ccccc2CN1C(=O)c1ccco1 (centres undefined) | 143 to 147 |
| C=CCNC(=O)c1ccccc1N | 92 to 94 |
| CCN(C)S(=O)(=O)c1c(C)n[nH]c1C | 61 to 63 |
| CC(Cl)C(=O)Nc1ccc2c(c1)OC1(CCCCC1)O2 (centres undefined) | 98 to 100 |
| N#CCc1cnn(-c2ccccc2)c1 | 38 to 40 |
| N#CCc1csc(-c2ccccc2)n1 | 57 to 59 |
| O=C1CCOc2ccccc2N1 | 109 to 111 |
| O=C(O)C1CCCN(S(=O)(=O)c2cccnc2)C1 (centres undefined) | 214 to 216 |
| Nc1nnc(-c2ccco2)s1 | 250 to 252 |
| CC(C)CNC(=O)N1CCCC(C(=O)O)C1 (centres undefined) | 106 to 108 |
| c1cc(-c2nnco2)ccn1 | 119 to 121 |
| CCOC(=O)c1sc(/N=C/N(C)C)c(C#N)c1C | 151 to 153 |
| COc1cc(CN)ccc1OC(C)(C)C | 52 to 54 |
| O=c1[nH]c2c(s1)CCC2 | 142 to 144 |
| Nc1ccc(OCCO)nc1 | 63 to 65 |
| N#Cc1cccc(Cn2ccnc2)c1 | 65 to 67 |
| CC(C)(C)c1ccc(C2(CN)CCCC2)cc1 | 62 to 64 |
| O=C(O)CCOc1ccc(Oc2ccccc2)cc1 | 118 to 120 |
| COc1ccc(C(=O)N2CCOCC2)cc1N | 150 to 152 |

| SMILES | melting point [°C] |
| --- | --- |
| COCc1ccccc1CNC(=O)CCl | 51 to 53 |
| CC(O)CN1C(=O)C=CC1=O (centres undefined) | 74 to 76 |
| Cc1cc(C)n(CCO)n1 | 74 to 76 |
| CC(C)(C)OC(=O)NC1CCN(C(=O)CC(F)(F)F)CC1 | 147 to 149 |
| CC(C)(C)OC(=O)N1CCCCC1(C)C(=O)O (centres undefined) | 92 to 94 |
| O=C(O)C(F)=C1CCCC1 | 83 to 85 |
| CCOCCOc1ccc(Br)cc1C=O | 28 to 30 |
| CS(=O)(=O)CCS(=O)(=O)Cl | 119 to 121 |
| O=C(Nc1ncccn1)C1CCNCC1 | 146 to 148 |
| Nc1ccc(N2CCOCC2)c(S(=O)(=O)Nc2ccc(Cl)cc2)c1 | 236 to 238 |
| Cc1cc(OC(F)F)c(C(=O)O)s1 | 155 to 157 |
| CC(C)(O)CN1CCNCC1 | 61 to 63 |
| CCN(Cc1ccccc1)S(N)(=O)=O | 79 to 81 |
| CCOc1ccc(Oc2ccc(C(F)(F)F)cc2N)cc1 | 45 to 47 |
| Clc1cc(-c2cccnc2)nc2ncnn12 | 175 to 177 |
| CN1CC(=O)N(CC(=O)O)C1=O | 139 to 141 |
| CC(=O)NCCNCc1ccccc1 | 51 to 53 |
| O=C(O)c1ccccc1SCC(=O)N1CCCC1 | 115 to 117 |
| OCCCOc1ccc(Br)cc1 | 34 to 36 |
| NNc1ccncc1Cl | 158 to 160 |

Reference: a melting point compilation (Tetko et al.)
